Here are results for 1 substance from patent US6365379B1, “Zinc finger peptide cleavage of nucleic acids” (ISIS Pharmaceuticals, Inc., priority 1998, dated 2002).

What all share (type): biochemical
For test [1], the system named is 20-mer RNA oligonucleotide 9713, Seq. I.D. No. 7. The experiment in a line: Multiple turnover kinetics of RNA cleavage, Lineweaver-Burk analysis. The note with it: zinc-free form of the finger peptide. How it is done: (§1) FIG. 1A depicts the Kinetics of RNA Cleavage by the Finger Peptide of Seq. I.D. No. 1. Multiple turnover kinetics are shown for RNA cleavage by the wild-type peptide (open box) and wild-type peptide coordinated with zinc (open triangle). […] I.D. No. 1. Multiple turnover kinetics were performed in 100 μL containing 50 nM peptide, 100 to 1000 nM or a 20—mer RNA oligonucleotide denominated 9713 and having Seq. I.D. No. 7, as […] 32P labeled RNA in 20 mM Sodium Phosphate, pH 7.0, 100 mM KCl, 1 mM EDTA, and 0.1% NP40. Digestion reaction were incubated at 37° C. and quenched at specific time points in 6 M urea. Digestion products were analyzed by denaturing polyacrylamide gel electrophoresis. […] Single turnover kinetics were performed as described above with the exception that peptide ranging in concentration from 50 to 500 nM was added to 50 nM of the 9713 RNA, Seq. I.D. No. 7.

Test [2] has as its system RNA. In words: Effect of divalent cations on RNA cleavage activity. The note with it: Mg2+ and Mn2+. The procedure: (§2) I.D. No. 1. Digestion reactions were performed as described in FIG. 1 in the presence of either Mg2+ (solid) or Mn2+ (hashed). Reactions were quenched at 30 min. and digestion products analyzed by denaturing polyacrylamide gel electrophoresis.
For test [3], the system named is Single strand DNA, double strand RNA and DNA, and 2′-methoxy modified sequences. The experiment in a line: Cleavage selectivity against other nucleic acids. How it is done: (§3) Initial rates of cleavage of several single stranded oligonucleotides were determined as described in connection with FIG. 1 with the exception that 50 nM wild-type peptide and 500 nM oligonucleotide were used. Arrows indicate the position of the peptide induced cleavage. The relative intensity of the cleavage product for each respective cleavage sites is indicated by the length of the arrows.

The test system of test [4] is RNA substrate 9713, Seq. I.D. No. 7. In words: Cleavage product analysis of RNA substrate. An excerpt: FIG. 3A presents a schematic cleavage product analysis of RNA aubstrate. RNA substrate 9713, Seq. I.D. No. 7, was internally labeled at the penultimate 3′ phosphate using (^32P) cytidine bisphosphate and T4 RNA ligase. The 3′ terminal phosphate was removed using calf intestinal phosphatase and the RNA digested with the wild type peptide as described in the schematic of FIG. 3A. The digestion reactions were divided into equal aliquots and one aliquot subjected to an additional dephosphorylation. The digested products were analyzed by denaturing polyacrylamide gel electrophoresis.

Test [5] relates to 9713 (RNA) 20-mer RNA oligonucleotide, Seq. I.D. No. 7. In words: Initial rate of cleavage of single stranded oligonucleotide by the peptides. Also on record: unit not given here. The procedure:
as §1
Initial rates of cleavage of several single stranded oligonucleotides were determined as described in connection with FIG. 1 with the exception that 50 nM wild-type peptide and 500 nM oligonucleotide were used. […]
I.D. No. 1. […] Reactions were quenched at 30 min. and digestion products analyzed by denaturing polyacrylamide gel electrophoresis.
Initial rates were determined as described in connection with FIG. 2. Peptide structure was determined by SDS PAGE and LC-MS.

Test [6] concerns 12079 (2′-OMe) single stranded oligonucleotide, SEQ ID 3. In words: Initial rate of cleavage of single stranded oligonucleotide by the finger peptide. Also on record: unit not given here. The note with it: substrate 12079 (2′-OMe); 50 nM wild-type peptide, 500 nM oligonucleotide. How it is done: as §1, §3
Test [7] concerns 3058 (RNA) single stranded oligonucleotide, SEQ ID 4. The description is as above. The note with it: substrate 3058 (RNA); 50 nM wild-type peptide, 500 nM oligonucleotide. On the set-up: unit not given here. How it is done: as §1, §3
Test [8] has as its system 2755 (RNA) single stranded oligonucleotide, SEQ ID 5. The test is described as above. The note with it: substrate 2755 (RNA); 50 nM wild-type peptide, 500 nM oligonucleotide. Also on record: unit not given here. How it is done: as §1, §3
The subject of test [9] is 12147 (RNA) single stranded oligonucleotide, SEQ ID 6. Described as above. On the set-up: unit not given here. The note with it: substrate 12147 (RNA); 50 nM wild-type peptide, 500 nM oligonucleotide. The procedure:
as §1, §3

Test [10] concerns 4701 (DNA) single stranded oligonucleotide, SEQ ID 2. Described as above. The note with it: substrate 4701 (DNA); 50 nM wild-type peptide, 500 nM oligonucleotide. Also on record: unit not given here. How it is done:
as §1, §3

In another test the test system is single stranded RNA. The experiment in a line: RNA cleavage (ribonuclease) activity of the peptides. The procedure:
as §1, §2

Test [11] has as its system RNA. The experiment in a line: pH dependence of RNA cleavage. The note with it: bell shaped pH profile, pH 4 to 9. The procedure: I.D. No. 1. Initial rates were determined as described in connection with FIG. 2. For each rate determination the pH was adjusted using either 20 mM sodium acetate, pH 4, 20 mM sodium phosphate, pH 5 to pH 8 or 20 mM sodium carbonate, pH 9.

By Km is commonly meant the concentration of substrate that gives half-maximal velocity. As to “HOOC-KTYQCQYCEY RSADSSNLKTHIKTKHSKEK-NH2 [Wild type]”, in [1], the Kcat came out at 0.96 s⁻¹. In addition, the Km in test [1] was determined as 0.105 µM. The V0 in test [1] worked out at 6 nmol/L/min; in [5] (substrate 9713 (RNA), 50 nM wild-type peptide, 500 nM oligonucleotide) it was 6100; in test [6], 0; in test [7], 153; in [8] it was 422; in test [9], 1200. In test [10], this substance came in with a V0 of 0. Further, the “requirement of divalent cations for catalysis” value with RNA [2] was “not to be required for catalysis”. The “hydrolysis of non single strand RNA substrates” value in test [3] (listed as SEQ ID No. 1) is given as “not hydrolyzed”; in test [3] (listed as the peptide), “not degraded”. For the same substance, the “termini of RNA cleavage products” value in [4] (listed as SEQ ID No. 1) is 3′-phosphate and 5′-hydroxyl; in test [4] (listed as wild type peptide) it was 3′-phosphate and 5′-hydroxyl termini. In addition, in test [5] (substrate 9713 RNA, wild type and mutant peptides), the “V0 (9713)” value was 6000 ± 130. Besides, in the test on single stranded RNA, the “cleavage site specificity within single stranded RNA” value is given as “preferentially cleave 5′-pyr-A-3′”. Also, the “cleavage rate of RNA sequences containing 5′-pyr-A-3′ relative to those without” value with single stranded RNA (fold faster) was 10-30 fold. Moreover, the “ribonuclease activity on coordination of the peptide with zinc” value in the test with single stranded RNA (peptide coordinated with zinc) is listed as “complete loss of ribonuclease activity”. For the same substance, the “pH for RNA cleavage” value in the test on RNA [11] was 7.0.
